# According to US8580793B2, “Use of kinase inhibitor for the treatment of thymoma” (Nerviano Medical Services S.r.l., priority 2009, dated 2013):
# System: thymic carcinoma
# Assay: Phase I clinical trial, objective tumor response in thymic carcinoma patients (RECIST)
# Format: in vivo, human
# Conditions: 150 mg daily; for decrease in the sum of target lesions compared to baseline: patient; for tumor response as per RECIST criteria: thymic carcinoma patient, 4 days on/3 days off for 3 weeks in 4-week cycle
# Text: An objective tumor response was obtained in a patient, first diagnosed with thymic carcinoma in May 2002 and having had their third progression of disease with metastases to lung in July 2007, entered the phase I clinical trial in September 2007. […] The patient, prior to be treated in the clinical trial, received other treatments for their thymic carcinoma, as follows: from January 2005 to June 2005: Adriamycin®, Cytoxan®, Cisplatin; from February 2006 to May 2006: Ifosfamide; from October 2006 to June 2007: Taxol®, Carboplatin; from June 2007 to July 2007: Adriamycin®, Cytoxan®, Vincristine. The patient had also surgery in May 2002 and radiotherapy in July 2002 and July 2006.
# Another objective tumor response was obtained in a patient, first diagnosed with thymic carcinoma in May 2006, becoming metastatic to lung, bones and peritoneum in October 2007. The patient started treatment in the phase I clinical trial in December 2008. […] The patient, prior to be treated in the clinical trial, received one line of chemotherapy (cisplatin/gemcitabine) from November 2007 to March 2008; they had surgery in May 2006 and radiotherapy in September 2006.
smiles,measurement,setting,value
"CNC(=O)c1nn(C)c2c1C(C)(C)Cc1cnc(Nc3ccc(N4CCN(C)CC4)cc3)nc1-2 [compound of formula (I), 8-[4-(4-methyl-piperazin-1-yl)-phenylamino]-1,4,4-trimethyl-4,5-dihydro-1H-pyrazolo[4,3-h]quinazoline-3-carboxylic acid methylamide]",decrease in the sum of target lesions compared to baseline,PR confirmed one month later,40%
same,decrease in the sum of target lesions compared to baseline,after 6 cycles,30%
same,decrease in the sum of target lesions compared to baseline,after 10 cycles,31.2%
same,decrease in the sum of target lesions compared to baseline,documented until cycle 13,37.6%
same,tumor response as per RECIST criteria,after 6 cycles,partial tumor response (PR)
same,tumor response as per RECIST criteria,after 10 cycles,partial tumor response (PR)
